Key:
[1] = target: human serotonin transporter (SERT) (Homo sapiens (Human), UniProt P31645); experiment: Scintillation Proximity Assay (SPA) for human SERT binding ([3H]citalopram); details: recombinant human SERT, CHO membranes
From the text: (§1) Affinity is expressed in terms of inhibition constant (Ki) of the compounds of the invention for DAT, NET and SERT, and it is typically calculated from the IC50 values obtained in competition experiments using Cheng and Prusoff equation (Cheng and Prusoff, Biochem. Pharmacol. 22:3099, 1973). In the context of the present invention pKi values (corresponding to the antilogarithm of Ki) are used instead of Ki; pKi are only estimated to be accurate to about 0.3 log unit.
(§2) Chinese Hamster Ovary (CHO) cells stably expressing either human DAT (hDAT-CHO) or human NET (hNET-CHO) or human SERT (hSERT-CHO) are used for the membrane preparations for radioligand binding assays using Scintillation proximity Assay (SPA) technique. Each cell line is cultured independently in F-12K Nutrient Mixture containing 10% of Fetal Bovine Serum (FBS) supplemented with 450 μg/ml G-418. When cells are at 70-80% of confluence 3 mM Na Butyrate was added to the cell culture medium. After 24 h of incubation, the culture medium was removed and the cells detached with Versene (DAT) or by scraping (NET and SERT). Cell suspension is centrifuged at 41,000 g for 10 minutes at 4° C. The resultant pellets are re-suspended in 15 volumes of Ice-cold buffer (20 mM HEPES, 145 mM NaCl, 5 mM KCl, pH7.3), homogenized using an Ultra Turrax homogeniser and centrifuged as before. The resultant membrane pellets are re-suspended in up to 15 volume of ice-cold buffer, incubated for 20 minutes at 37° C and centrifuged as before at 41,000 g. The final membrane pellets are re-suspended into 5-10 volumes of ice-cold buffer, dispensed into 0.5 ml aliquots and stored at −80° C. until use. Protein concentration for each preparation is determined using Bio-Rad Protein Assay Kit.
(§3) The affinity of the compounds of the invention to the human DAT or NET or SERT transporters is assessed by using the [^3H]WIN-35,428 or [^3H]nisoxetine or [^3H]citalopram binding assays in recombinant human DAT, NET and SERT membranes with the SPA technology. The final assay volume is 50 μL in 384 well plates.
(§4) Briefly, 0.5 μL of test compound in neat DMSO or 0.5 μL of DMSO for total binding (TB) or 0.5 μL of indatraline 1 mM (10 μM final concentration) for non specific binding (NSB) are added to the assay plate. 50 μL of the SPA mixture is added to each well, containing: 30 μg/mL or 10 μg/mL or 25 μg/mL DAT, NET, SERT membranes, respectively; 5 nM [^3H]WIN-35,428 or 5 nM [^3H]nisoxetine or 1 nM [^3H]citalopram, for DAT, NET, SERT assay, respectively; 2.5 mg/mL or 1 mg/mL or 4 mg/mL WGA-PVT SPA beads (PerkinElmer RPNQ0001, for DAT, NET, SERT assay, respectively. All components are added to Assay Buffer (20 mM HEPES pH 7.4, 145 mM NaCl, 5 mM KCl, 0.01% Pluronic F-127). 0.02% BSA was used for DAT binding only. Plates are sealed with Topseal A and centrifuged 1 min, 800 rpm. Plates are loaded into a 1450 Microbeta TriLux (Perkin-Elmer) plate reader and the radioactivity counted after at least 4 hrs or overnight incubation at room temperature. Curve fitting and IC50 estimations are performed using a four parameter model in XLfit (IDBS, Guilford, UK) for Microdoft Excel (Microsoft, Redmond, Wash.).

[2] = target: human norepinephrine transporter (NET) (Homo sapiens (Human), UniProt P23975); experiment: Scintillation Proximity Assay (SPA) for human NET binding ([3H]nisoxetine); details: recombinant human NET, CHO membranes
Sequence of human norepinephrine transporter (NET) (P23975 whole entry): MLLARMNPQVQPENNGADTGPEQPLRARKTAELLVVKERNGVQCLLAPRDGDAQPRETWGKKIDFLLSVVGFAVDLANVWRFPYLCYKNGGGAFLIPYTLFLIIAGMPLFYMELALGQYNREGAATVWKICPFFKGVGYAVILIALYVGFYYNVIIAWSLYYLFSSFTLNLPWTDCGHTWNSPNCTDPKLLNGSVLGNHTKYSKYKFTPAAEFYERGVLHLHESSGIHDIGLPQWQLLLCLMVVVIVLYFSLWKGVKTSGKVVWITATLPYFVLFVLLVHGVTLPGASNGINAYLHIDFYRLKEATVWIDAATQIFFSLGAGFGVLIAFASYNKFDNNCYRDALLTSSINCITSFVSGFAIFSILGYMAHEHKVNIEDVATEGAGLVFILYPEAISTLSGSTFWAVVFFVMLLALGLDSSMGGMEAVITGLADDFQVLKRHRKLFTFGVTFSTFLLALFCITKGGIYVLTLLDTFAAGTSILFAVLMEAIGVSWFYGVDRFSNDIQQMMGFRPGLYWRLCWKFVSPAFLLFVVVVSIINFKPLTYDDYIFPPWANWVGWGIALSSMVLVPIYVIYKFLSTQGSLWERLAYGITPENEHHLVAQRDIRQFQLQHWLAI
From the text: as §1, §2, §3, §4

[3] = target: human ERG potassium channel (hERG) (Homo sapiens (Human), UniProt Q12809); experiment: hERG channel tail current recording using Rapid ICE automated patch-clamp; assay type: cell-based; details: HEK293 cells stably transfected with hERG
Sequence of human ERG potassium channel (hERG) (Q12809 whole entry): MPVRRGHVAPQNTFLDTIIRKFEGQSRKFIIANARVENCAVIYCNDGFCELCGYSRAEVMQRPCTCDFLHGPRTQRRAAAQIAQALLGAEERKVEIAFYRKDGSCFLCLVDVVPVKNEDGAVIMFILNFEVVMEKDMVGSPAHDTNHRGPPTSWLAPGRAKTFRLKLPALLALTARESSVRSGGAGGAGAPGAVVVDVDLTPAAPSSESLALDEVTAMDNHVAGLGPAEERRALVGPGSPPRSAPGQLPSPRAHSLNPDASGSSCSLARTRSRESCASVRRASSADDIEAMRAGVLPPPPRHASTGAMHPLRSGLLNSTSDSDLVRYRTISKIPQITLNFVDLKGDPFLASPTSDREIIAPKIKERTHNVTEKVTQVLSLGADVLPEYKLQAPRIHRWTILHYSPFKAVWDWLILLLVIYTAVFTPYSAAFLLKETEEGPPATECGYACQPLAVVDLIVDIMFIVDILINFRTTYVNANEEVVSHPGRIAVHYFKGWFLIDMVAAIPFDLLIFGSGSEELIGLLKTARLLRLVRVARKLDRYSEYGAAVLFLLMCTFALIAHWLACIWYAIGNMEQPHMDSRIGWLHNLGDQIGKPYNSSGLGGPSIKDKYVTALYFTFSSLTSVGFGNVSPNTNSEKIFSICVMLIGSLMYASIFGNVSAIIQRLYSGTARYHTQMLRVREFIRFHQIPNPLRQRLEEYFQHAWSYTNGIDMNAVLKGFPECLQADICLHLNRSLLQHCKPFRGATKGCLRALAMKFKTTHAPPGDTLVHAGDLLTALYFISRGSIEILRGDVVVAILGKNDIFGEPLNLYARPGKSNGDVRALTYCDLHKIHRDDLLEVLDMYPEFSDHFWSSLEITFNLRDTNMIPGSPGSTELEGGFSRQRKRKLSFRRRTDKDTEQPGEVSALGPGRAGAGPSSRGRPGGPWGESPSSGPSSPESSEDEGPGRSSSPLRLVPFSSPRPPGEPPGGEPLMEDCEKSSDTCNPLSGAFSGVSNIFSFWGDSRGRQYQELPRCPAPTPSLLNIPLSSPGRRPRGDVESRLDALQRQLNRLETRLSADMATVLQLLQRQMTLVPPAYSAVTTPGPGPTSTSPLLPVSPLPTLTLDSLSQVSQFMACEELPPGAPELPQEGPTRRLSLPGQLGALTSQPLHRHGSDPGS
Experimental: The potency of the compounds of the invention in inhibiting human ERG potassium channel (hERG) tail current is assessed in a recombinant HEK293 cell line stably transfected with hERG cDNA using Rapid ICE™ (Rapid Ion Channel Electrophysiology) assay. Rapid ICE™ is an automated patch-clamp assay utilizing the PatchXpress 7000A system (Molecular Devices Corporation) or the QPatch HTX system (Sophion Bioscience A/S).
Briefly cells are cultivated for 24 to 72 hours before recordings in minimum essential medium supplemented with 10% FBS, 1% non-essential amino acids, 1% sodium pyruvate, 2 mM L-glutamine. The day of the experiment cells are detached with TrypLE and prepared to be loaded on the instrument. For PatchXpress cells are finally resuspended in 150 μl of Extracellular Buffer whereas for QPatch cells are resuspended in 7 ml Serum-Free Media containing 25 mM Hepes and Soybean trypsin inhibitor and immediately placed in the cell storage tank of the machine. The composition of the Extracellular Buffer is (mM): NaCl 137; KCl 4; CaCl2 1.8; MgCl2 1.0; D-glucose 10; N 2 hydroxyethylpiperazine-N′-2-ethanesulfonic acid (HEPES) 10; pH 7.4 with 1 M NaOH. The composition of the pipette solution is (mM): KCl 130; MgCl2 1.0; Ethylene glycol-bis(β-aminoethyl ether)-N,N,N′,N′-tetraacetic acid (EGTA) 5; MgATP 5; HEPES 10; pH 7.2 with 1 M KOH. The voltage protocol includes the following steps: step from −80 mV to −50 mV for 200 ms, +20 mV for 4.8 s, step to −50 mV for 5 s then step to the holding potential of −80 mV. Compounds of the invention are dissolved in DMSO and diluted in Extracellular Buffer to achieve final test concentrations (0.1, 1 and 10 μM) in 0.1% DMSO. The voltage protocol is run and recorded continuously during the experiment. The vehicle, corresponding to 0.1% DMSO in Extracellular Buffer, is then applied for 3 min followed by the test substance in triplicate. The standard combined exposure time is 5 min. The average of tail current amplitude values recorded from 4 sequential voltage pulses is used to calculate for each cell the effect of the test substance by calculating the residual current (% control) compared with vehicle pre-treatment. Data are reported as % inhibition for each concentration tested and IC50 values are estimated using DataXpress or QPatch software. At least two cells are tested, more if results diverge.

[4] = target: human dopamine transporter (DAT) (Homo sapiens (Human), UniProt Q01959); experiment: Scintillation Proximity Assay (SPA) for human DAT binding ([3H]WIN-35,428); details: recombinant human DAT, CHO
Sequence of human dopamine transporter (DAT) (Q01959 whole entry): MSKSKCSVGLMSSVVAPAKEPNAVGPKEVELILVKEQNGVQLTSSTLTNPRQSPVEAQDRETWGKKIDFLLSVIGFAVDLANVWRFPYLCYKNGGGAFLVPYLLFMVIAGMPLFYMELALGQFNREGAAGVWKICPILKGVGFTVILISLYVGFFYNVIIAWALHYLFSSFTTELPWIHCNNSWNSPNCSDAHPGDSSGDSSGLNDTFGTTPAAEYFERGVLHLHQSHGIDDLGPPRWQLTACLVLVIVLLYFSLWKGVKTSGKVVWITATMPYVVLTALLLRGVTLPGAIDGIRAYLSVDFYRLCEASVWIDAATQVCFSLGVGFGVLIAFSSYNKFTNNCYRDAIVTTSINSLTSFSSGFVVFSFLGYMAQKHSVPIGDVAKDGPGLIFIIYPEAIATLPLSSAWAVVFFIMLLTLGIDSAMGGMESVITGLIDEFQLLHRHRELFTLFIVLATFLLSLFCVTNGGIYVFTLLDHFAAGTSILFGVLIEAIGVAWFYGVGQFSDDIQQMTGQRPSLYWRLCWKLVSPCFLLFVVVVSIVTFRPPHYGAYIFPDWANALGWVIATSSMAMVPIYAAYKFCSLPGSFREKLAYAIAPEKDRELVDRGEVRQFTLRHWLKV
From the text: as §1, §2, §3, §4
The potency of the compounds of the invention in blocking the DAT function is measured using an uptake assay in a recombinant CHO cell line expressing human DAT (hDAT-CHO). Potency is measured in terms of pIC50 by testing the compounds of invention for the inhibition of [^3H]-dopamine uptake in DAT-CHO cells using a SPA technology in 384 well format.
Briefly, on the days of the experiment hDAT-CHO cells are detached using Versene and added (75,000 cells/mL) to the SPA Mixture, which contains the following components in Assay Buffer (20 mM HEPES, 145 mM NaCl, 5 mM KCl, 2 mM CaCl2, 1 mM MgCl2 and 1 g/L glucose, pH 7.3): 0.02% w/v of Pluronic F127, 2 mg/mL SPA Imaging beads (RPNQ0260, PerkinElmer), 10 μM pargyline and 80 nM of [^3H]-dopamine. […]

Sequence of human serotonin transporter (SERT) (P31645 whole entry): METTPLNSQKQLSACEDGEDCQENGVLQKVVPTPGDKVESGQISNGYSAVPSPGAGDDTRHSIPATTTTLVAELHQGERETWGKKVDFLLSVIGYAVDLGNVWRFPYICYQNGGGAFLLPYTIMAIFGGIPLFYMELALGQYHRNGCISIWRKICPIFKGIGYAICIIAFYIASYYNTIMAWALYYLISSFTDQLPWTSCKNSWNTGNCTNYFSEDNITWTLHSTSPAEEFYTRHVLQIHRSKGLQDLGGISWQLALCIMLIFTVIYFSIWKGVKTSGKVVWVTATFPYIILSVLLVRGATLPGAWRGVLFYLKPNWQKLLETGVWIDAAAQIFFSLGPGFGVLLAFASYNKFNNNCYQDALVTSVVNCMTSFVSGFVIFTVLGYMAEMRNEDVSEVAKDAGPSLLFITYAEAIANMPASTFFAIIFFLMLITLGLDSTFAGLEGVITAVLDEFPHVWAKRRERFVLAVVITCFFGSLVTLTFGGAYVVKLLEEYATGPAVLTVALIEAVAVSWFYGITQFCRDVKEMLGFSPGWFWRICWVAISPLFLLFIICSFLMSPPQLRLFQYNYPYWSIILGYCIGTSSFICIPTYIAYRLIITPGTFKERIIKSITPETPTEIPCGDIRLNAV

OC1(CNC2CC2)CCN(c2nc(Oc3cccc(F)c3)cc(C(F)(F)F)n2)CC1 [Example 3, 4-[(cyclopropylamino)methyl]-1-[4-(3-fluorophenoxy)-6-(trifluoromethyl)pyrimidin-2-yl]piperidin-4-ol]
IC50 [1]: 21.4 µM | pIC50 NET [2]: 6.42 | pIC50 hERG [3]: 6.0 | pIC50 DAT [4]: 8.13

NCC1(O)CCN(c2cccc(Oc3cccc(F)c3)c2F)CC1 [Example 17, 4-(aminomethyl)-1-[2-fluoro-3-(3-fluorophenoxy)phenyl]piperidin-4-ol]
IC50 [1]: 2.09 µM | pIC50 NET [2]: 6.49 | pIC50 DAT [4]: 8.17

NCC1(O)CCN(c2cc(F)cc(Oc3cccc(F)c3)c2)CC1 [Example 14, 4-(aminomethyl)-1-[3-fluoro-5-(3-fluorophenoxy)phenyl]piperidin-4-ol]
IC50 [1]: 0.603 µM | pIC50 NET [2]: 6.93 | pIC50 DAT [4]: 8.82

NC1(CO)CCN(c2nc(Oc3cccc(F)c3)cc(C(F)(F)F)n2)CC1 [Example 20, {4-amino-1-[4-(3-fluorophenoxy)-6-(trifluoromethyl)pyrimidin-2-yl]piperidin-4-yl}methanol]
IC50 [1]: 5.13 µM | pIC50 NET [2]: 6.50 | pIC50 DAT [4]: 8.39

NCC1(O)CCN(c2cccc(Oc3ccccc3)c2F)CC1 [Example 16, 4-(aminomethyl)-1-(2-fluoro-3-phenoxyphenyl)piperidin-4-ol]
IC50 [1]: 1.45 µM | pIC50 NET [2]: 6.01 | pIC50 DAT [4]: 7.81

CC(C)C(=O)NCC1(O)CCN(c2nc(Oc3cccc(F)c3)cc(C(F)(F)F)n2)C1 (stereo not shown) [Example 34, N-({1-[4-(3-fluorophenoxy)-6-(trifluoromethyl)pyrimidin-2-yl]-3-hydroxypyrrolidin-3-yl}methyl)-2-methylpropanamide]
IC50 [1]: > 100 µM | pIC50 NET [2]: 4.72 | pIC50 DAT [4]: 6.50

O=C(CC1CC1)NCC1(O)CCN(c2nc(Oc3cccc(F)c3)cc(C(F)(F)F)n2)CC1 [Example 22, 2-cyclopropyl-N-({1-[4-(3-fluorophenoxy)-6-(trifluoromethyl)pyrimidin-2-yl]-4-hydroxypiperidin-4-yl}methyl)acetamide]
IC50 [1]: > 100 µM | pIC50 NET [2]: 5.76 | pIC50 DAT [4]: 7.58

CC(C)OCC(=O)NCC1(O)CCN(c2nc(Oc3cccc(F)c3)cc(C(F)(F)F)n2)CC1 [Example 23, N-({1-[4-(3-fluorophenoxy)-6-(trifluoromethyl)pyrimidin-2-yl]-4-hydroxypiperidin-4-yl}methyl)-2-(propan-2-yloxy)acetamide]
IC50 [1]: > 100 µM | pIC50 NET [2]: 5.55 | pIC50 DAT [4]: 7.75

O=C1CCCN1CC1(O)CCN(c2nc(Oc3cccc(F)c3)cc(C(F)(F)F)n2)CC1 [Example 10, 1-({1-[4-(3-fluorophenoxy)-6-(trifluoromethyl)pyrimidin-2-yl]-4-hydroxypiperidin-4-yl}methyl)pyrrolidin-2-one]
IC50 [1]: > 100 µM | pIC50 NET [2]: 5.33 | pIC50 DAT [4]: 7.18

CC(C)(C)NCC1(O)CCN(c2nc(Oc3cccc(F)c3)cc(C(F)(F)F)n2)CC1 [Example 9, 4-[(tert-butylamino)methyl]-1-[4-(3-fluorophenoxy)-6-(trifluoromethyl)pyrimidin-2-yl]piperidin-4-ol]
IC50 [1]: 11.2 µM | pIC50 NET [2]: 6.02 | pIC50 DAT [4]: 7.91

O=C(NCC1(O)CCN(c2nc(Oc3cccc(F)c3)cc(C(F)(F)F)n2)C1)C1CNC1 (stereo not shown) [Example 35, N-({1-[4-(3-fluorophenoxy)-6-(trifluoromethyl)pyrimidin-2-yl]-3-hydroxypyrrolidin-3-yl}methyl)azetidine-3-carboxamide]
IC50 [1]: 33.1 µM | pIC50 NET [2]: 6.56 | pIC50 DAT [4]: 8.25

Cl.NCC1(O)CCN(c2nc(Oc3cccc(F)c3)cc(C(F)(F)F)n2)CC1 [Example 12, 4-(aminomethyl)-1-[4-(3-fluorophenoxy)-6-(trifluoromethyl)pyrimidin-2-yl]piperidin-4-ol hydrochloride]
IC50 [1]: 8.71 µM | pIC50 NET [2]: 6.84 | pIC50 DAT [4]: 8.56

(3R or 3S)-3-[(cyclopropylamino)methyl]-1-[4-(3-fluorophenoxy)-6-(trifluoromethyl)pyrimidin-2-yl]pyrrolidin-3-ol [Example 32]
pIC50 SERT [1]: 4.36 | pIC50 NET [2]: 6.63 | pIC50 DAT [4]: 8.47

OC1(CNC2CC2)CCN(c2nc(Oc3cccc(F)c3)cc(C(F)(F)F)n2)C1 (stereo not shown) [Example 30, 3-[(cyclopropylamino)methyl]-1-[4-(3-fluorophenoxy)-6-(trifluoromethyl)pyrimidin-2-yl]pyrrolidin-3-ol]
IC50 [1]: 34.7 µM | pIC50 NET [2]: 6.78 | pIC50 DAT [4]: 8.72

NCC1(O)CCN(c2cc(F)cc(Oc3cccc(F)c3)c2F)CC1 [Example 15, 4-(aminomethyl)-1-[2,5-difluoro-3-(3-fluorophenoxy)phenyl]piperidin-4-ol]
IC50 [1]: 0.661 µM | pIC50 NET [2]: 7.24 | pIC50 DAT [4]: 9.04

CC(=O)NCC1(O)CCN(c2nc(Oc3cccc(F)c3)cc(C(F)(F)F)n2)CC1 [Example 24, N-({1-[4-(3-fluorophenoxy)-6-(trifluoromethyl)pyrimidin-2-yl]-4-hydroxypiperidin-4-yl}methyl)acetamide]
IC50 [1]: > 100 µM | pIC50 NET [2]: 5.04 | pIC50 DAT [4]: 7.42

— patent publication US9920053B2, “N-(hetero)aryl-substituted heteroyclic derivatives useful for the treatment of diseases or conditions related to the central nervous system” (CHRONOS THERAPEUTICS LIMITED, priority 2014, dated 2018)
